Molecules are shown by their SMILES.

The subject of data set [1] is LDL receptors. Put plainly: LDL receptor expression, anti-LDLR immunofluorescence in liver cells. The class given is cell-based, Mouse. To be noted: 24 hours; for Up-regulating of LDL receptors (Intensity of fluoresces) MEAN %: hepatic (AML12) cells, control = 100. The method, then:
Cells were incubated with florescence labeled LDL to study the up-taking and metabolite of LDL cholesterol by the cells. LDL specific antibody were used to study LDL receptors expressed by the cells. […] After 24 hours of treatments, the cells were washed and fixed with paraformaldehyde. Cells were then incubated with anti-LDLR primary antibody with 1:200 dilution at room temperature for 4 hours. After washed, the second antibody Alexa Fluor 488 with 1:200 dilutions was added and incubated at room temperature for 2 hours. The cells were washed again before examined under fluorescent microscope. The fluorescence anti-body bound LDL receptors in green and either bound or internalized fluoresces labeled LDL in red were examined separately or after merging. Fluorescent microscope equipped with a digital camera (Axio Observer 7). Computer software was used to quantify the intensity of fluorescence, which is correlated with the amount of LDL and LDL receptors bounded to antibodies.

Data set [2] deals with Pulmonary artery smooth muscle cell (PASMC).
Method: Cells were cultivated for 24 hours at room temperature. The cells then replaced again with FBS-free medium containing 10% CCK-8 reagent and cultivated for 3 hours in the dark.
A Multi-function micro plate reader (TriStar2S LB942) was used to measure the cell viability.
Cells added no drugs (0 μM) were used as control.
Data set [3] concerns Mouse liver AML12 cells. The data set is described as follows: Up-taking of fluorescence labeled LDL by liver cells. The class given is cell-based. To be noted: 10 μM and 20 μM, 24 hours, compared between groups.
Method: Mouse liver AML12 cells were seeded in 24 well plates in DMEM/F12 and supplemented with 10% heat-inactivated fetal bovine serum. Cells were incubated with florescence labeled LDL to study the up-taking and metabolite of LDL cholesterol by the cells. LDL specific antibody were used to study LDL receptors expressed by the cells. […] The fluorescence anti-body bound LDL receptors in green and either bound or internalized fluoresces labeled LDL in red were examined separately or after merging. Fluorescent microscope equipped with a digital camera (Axio Observer 7). Computer software was used to quantify the intensity of fluorescence, which is correlated with the amount of LDL and LDL receptors bounded to antibodies.
Data set [4] has as its system Mouse liver AML12 cells. The data set is described as follows: Intracellular cholesterol content in AML12 cells loaded with LDL. The class given is cell-based. The following applies: for Intracellular cholesterol MEAN % (Synergistic Effects of Combining R-bambuterol and Statin): 10 μM (each drug 10 μM in the combination), LDL 40 μg/ml, AML12 cells, LDL Ctrl = 100; for Reduction of intercellular cholesterol, in words: 10 μM, Mouse liver AML12 cells. The method, then: Cells were then treated with different doses of R-bambuterol (R-BM) in the present of LDL (40 μg/ml). After 24 hours of incubation, total intracellular and extracellular cholesterol content were determined using Total Cholesterol Assay Kit E105 (Applygen Technologies Inc., Beijing, China) according to the manufacturer's protocol. The intracellular cholesterol is similar in control and LDL groups.

Data set [5] relates to Human liver HepG2 cells. Put plainly: Intracellular cholesterol content in HepG2 cells loaded with LDL (Total Cholesterol Assay Kit). The following applies: LDL 40 μg/ml, 24 hours, LDL control = 100. The class given is cell-based. The method, then:
Human liver HepG2 cells were seeded in six well plates in DMEM/F12 supplemented with 10% heat-inactivated fetal bovine serum. Cells were then treated with different doses of R-bambuterol (R-BM) in the present of LDL (40 μg/ml). After 24 hours of incubation, total intracellular and extracellular cholesterol content were determined using Total Cholesterol Assay Kit E105 (Applygen Technologies Inc., Beijing, China) according to the manufacturer's protocol.

Setting [6] is: 20 μM (each drug 20 μM in the combination).

`CN(C)C(=O)Oc1cc(OC(=O)N(C)C)cc(C(O)CNC(C)(C)C)c1` (stereo not shown) [R-BM, R-bambuterol]: the “Up-regulating of LDL receptors (Intensity of fluoresces) MEAN %” value in data set [1] (10 μM) is 202.9%; in data set [1] (setting [6]), 337.2%. The “Increase in LDL receptors expression compared with statin treated groups” value in data set [1] (AML12 cells) was “twice as much as seen in statin treated groups”. Moreover, the “Toxicity to the viability of PASMC, in words” value in data set [2] is reported as “no toxicity”. In addition, in data set [3], the “Bound and intracellular fluorescence labeled LDL” value was “significantly more bound and intracellular fluorescence labeled LDL”. Further, the “Intracellular cholesterol MEAN % (Synergistic Effects of Combining R-bambuterol and Statin)” value in data set [4] is reported as 94.5%. In addition, in data set [4], the “Reduction of intercellular cholesterol, in words” value was “less reduction of intercellular cholesterol”. For the same compound, the “Reduction of intercellular LDL cholesterol MEAN %” value turned out to be 94.07% in data set [5] (5 μM); 69.26% in data set [5] (10 μM); 28.54% in data set [5] (20 μM); 36.04% in data set [5] (40 μM); 21.02% in data set [5] (80 μM).

On to `CC(C)c1c(C(=O)Nc2ccccc2)c(-c2ccccc2)c(-c2ccc(F)cc2)n1CC[C@@H](O)C[C@@H](O)CC(=O)O` [Statin, Atorvastatin], for which the “Up-regulating of LDL receptors (Intensity of fluoresces) MEAN %” value in data set [1] (10 μM) is recorded as 159.1%. The “Up-regulating of LDL receptors (Intensity of fluoresces) MEAN %” value in data set [1] (setting [6]) turned out to be 140.2%. For the same compound, in data set [4], the “Intracellular cholesterol MEAN % (Synergistic Effects of Combining R-bambuterol and Statin)” value amounted to 95.3%; the “Reduction of intercellular cholesterol, in words” value is listed as “little effects on intercellular cholesterol”.

The record behind these values is patent publication US20210290580A1, “New use of carbamate ß phenylethanolamine analogues for enhancing intracellular clearance of LDL cholesterol and for combining therapy with statins to enhance the efficacy and reduce adverse effects” (priority 2018, published 2021).
